Measured values reported in article PMC9959553, “Promising Antifungal Molecules against Mucormycosis Agents Identified from Pandemic Response Box®: In Vitro and In Silico Analyses” (Journal of Fungi, 2023).
In brackets after ≈: the same amount, converted by molar mass. Like-named read-outs stand apart in the source and are kept apart here.

Assays:
R. oryzae [1] = assay: Antifungal drug synergy assay, Bliss independence model; type: cell-based, Rhizopus oryzae; parameters: key to Interaction: S, synergistic interaction; A, antagonist interaction; Efficacy of Combined Drugs, E obs / Efficacy of Combined Drugs, E exp: concentration or dose not given beside the values; conditions: for Efficacy of Drugs Alone (% of Inhibition), MIC50: at MIC50; for Efficacy of Drugs Alone (% of Inhibition), ½ MIC50: at ½ MIC50; for ΔE: Eobs minus Eexp; for Efficacy of Combined Drugs, E exp: expected by Bliss calculation
Experimental: (§1) Synergistic interactions were evaluated using the checkerboard method according to EUCAST guidelines (EUCAST 2008). R. oryzae conidia (2 × 10^5/mL) were grown in 96-well plates containing supplemented RPMI in the presence of the following selected compounds: […] An inhibition of at least 50% was defined as the cut-off for minimum inhibitory concentration (MIC). Interactions were determined by the fractional inhibitory concentration index (FICI), which was calculated using the following formula: (MIC combined/MIC drug A alone) + (MIC combined/MIC drug B alone). […] The Bliss independence model calculation was performed according to […] colleagues and Zhao and colleagues. The following formula was used to assess drug interaction: […] The results were classified as follows: synergistic effect when Eobs > Eexp; indifference when Eobs = Eexp; antagonistic effect when Eobs < Eexp.

[2] = Cytotoxicity assay (neutral red); type: cell-based; conditions: human
Experimental: (§2) Cytotoxicity of alexidine, MMV1580844, MMV642550 and MMV019724 was performed using three cell lineages: RAW 264.7, a murine macrophage culture; A549, adenocarcinomic human alveolar basal epithelial cells; and HaCaT, a spontaneously transformed aneuploid immortal keratinocyte cell line from adult human skin. Cells were grown in DMEM (Dulbecco’s Modified Eagle’s Medium, Sigma-Aldrich, MO, USA), supplemented with 10% fetal bovine serum and incubated for 48 h at 37 °C with 5% CO2 in the presence of serially diluted concentrations (0.3–50 μM) of each compound. Cell viability was measured using the neutral red (NR) assay and quantified using a spectrophotometer at 595 nm (SpectraMax® i3x, Molecular Devices®, San José, CA, USA).

[3] = system: R. oryzae, R. microsporus and R. stolonifer; assay: Antifungal susceptibility testing, values stated over the three species; type: cell-based; conditions: over the three Rhizopus species
Experimental: (§3) The susceptibility of the Rhizopus species to MMV396785 (alexidine), MMV1580844, MMV642550 and MMV019724 was determined using the broth microdilution method, according to EUCAST protocols, with modifications. Posaconazole and amphotericin B were also used as reference antifungal drugs because they are commonly used for the treatment of mucormycosis. […] A standardized suspension of conidia (2 × 10^5/mL) was added to the wells and incubated for 48 h at 37 °C, in a 5% CO2 atmosphere. Fungal growth was analyzed via spectrophotometry readings at 600 nm and cell viability was assessed using the XTT reduction assay. Minimum inhibitory concentration (MIC) of each compound was defined as the lowest concentration that inhibits 50% of fungal growth, because these fungi are highly resistant to antifungal drugs and a reduction in half of their growth is relevant. […] MFC values were defined as the lowest drug concentration able to arrest fungal growth.

[4] = system: R. microsporus preformed biofilm; assay: Preformed biofilm assay; type: cell-based, Rhizopus microsporus; conditions: R. microsporus, based on biofilm viability parameter
Experimental: (§4) For the preformed biofilm assay, cells were cultured as described above in the absence of the compounds. […] An additional incubation of 24 h at 37 °C was performed to evaluate the anti-biofilm activity. Evaluation of both biofilm formation and preformed biofilms was performed using three parameters as previously described. Crystal violet, safranin and XTT assays were used to analyze the overall biomass, extracellular matrix and metabolic activity, respectively.

[5] = Cytotoxicity assay (neutral red); type: cell-based, murine; conditions: mouse, RAW 264.7 macrophage cells
Experimental: as §2

R. oryzae [6] = assay: Antifungal susceptibility testing (broth microdilution, MIC and MFC); type: cell-based, Rhizopus oryzae; conditions: for MIC50 / MFC: Rhizopus arrhizus, 48 h; for MIC50: lowest concentration that inhibits 50% of fungal growth; for MFC: subculture in drug-free medium
Experimental: as §3

R. oryzae cells = assay: Analysis of fungal cell alterations with fluorescent staining; type: cell-based, Rhizopus oryzae; conditions: ½× MIC50, 48 h
Experimental: Alterations of R. oryzae cells caused by alexidine, MMV1580844, MMV642550 and MMV019724 were analyzed using fluorescent staining. Chitin, nucleic acid, oxidative stress, mitochondrial membrane potential and neutral lipid content were evaluated using calcofluor white (Sigma-Aldrich, MO, USA), Sytox Blue (ThermoFisher, Waltham, MA, USA), 2′,7′–dichlorofluorescein diacetate (DCFH-DA) (Sigma-Aldrich, MO, USA), JC-1 probe (ThermoFisher, Waltham, MA, USA) and Nile Red (Sigma-Aldrich, MO, USA), respectively. […] Cells were stained with 25 μg/mL of calcofluor white, 20 μM of Sytox Blue, 50 μg/mL of DCFH-DA, 10 μg/mL of JC-1 or 20 μg/mL of Nile Red, all of them for 1 h at 37 °C in the dark. Samples were washed three times to remove residual dye and suspended in PBS. Fluorescence intensity was measured using the SpectraMax 340 microplate reader (Molecular Devices, San José, CA, USA) under the following conditions: calcofluor white at 350 nm (excitation) and 432 nm (emission); Sytox Blue at 444 nm (excitation) and 480 nm (emission); DCFH-DA at 492 nm (excitation) and 517 nm (emission); JC-1 at 475 nm (excitation) and 529 nm (green fluorescence) or 590 nm (red fluorescence) for the calculation of the red/green fluorescence intensity; and Nile Red at 550 nm (excitation) and 635 nm (emission).

R. oryzae UCP1295 [7] = assay: Antifungal drug synergy assay, checkerboard method (FICI); type: cell-based, Rhizopus oryzae; conditions: Rhizopus arrhizus, UCP1295, 48 h; drug alone; read-out: MIC50 Alone
Experimental: as §1

[8] = system: R. stolonifer preformed biofilm; assay: Preformed biofilm assay; type: cell-based, Rhizopus stolonifer; conditions: R. stolonifer, based on biofilm viability parameter
Experimental: as §4

R. microsporus = assay: Antifungal susceptibility testing (broth microdilution, MIC and MFC); type: cell-based, Rhizopus microsporus var. microsporus; conditions: for MIC50 / MFC: Rhizopus microsporus, 48 h; for MIC50: lowest concentration that inhibits 50% of fungal growth; for MFC: subculture in drug-free medium
Experimental: as §3

R. oryzae UCP1295 [9] = assay: Screening of the Pandemic Response Box library at 5 µM; type: cell-based, Rhizopus oryzae; conditions: for inhibition at 5 µM: Rhizopus arrhizus, UCP1295, 48 h; for Viability Inhibition (XTT): XTT reduction
In short: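 Compounds at 5 μM in RPMI 1640 with 2% glucose and MOPS (0.165 mol/L, pH 7.2), with conidia at 2 × 10^5/mL, incubated 48 h at 37 °C in 5% CO2. Growth read by OD at 600 nm; hits defined as ≥60% inhibition. Posaconazole (5 μM) and 1% DMSO as controls.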

R. stolonifer = assay: Antifungal susceptibility testing (broth microdilution, MIC and MFC); type: cell-based, Rhizopus stolonifer; conditions: for MIC50 / MFC: Rhizopus stolonifer, 48 h; for MIC50: lowest concentration that inhibits 50% of fungal growth; for MFC: subculture in drug-free medium
Experimental: as §3

[10] = cited from earlier work
[11] = Table S1, mean of the four values, read-out: % of growth inhibition, Mean
[12] = optical density 600 nm, read-out: Growth Inhibition

For `Oc1cccc(C(Nc2nccs2)c2ccc3cccnc3c2O)c1` (stereo not drawn) [MMV642550], the “Efficacy of Drugs Alone (% of Inhibition), MIC50” value (R. oryzae [1]) was 62.9 % of Inhibition, the “Efficacy of Drugs Alone (% of Inhibition), ½ MIC50” value (R. oryzae [1]) was 42.3 % of Inhibition and the “Efficacy of Combined Drugs, E obs” value (R. oryzae [1]; combined with Amphotericin B) was 78.1%. The Interaction (R. oryzae [1]; combined with Amphotericin B) was “S”, the ΔE (R. oryzae [1]; combined with Amphotericin B) was 23.5% and the “Efficacy of Combined Drugs, E exp” value (R. oryzae [1]; combined with Amphotericin B) was 54.6%. The “Efficacy of Combined Drugs, E obs” value (R. oryzae [1]; combined with Posaconazole) was 60.0%, the Interaction (R. oryzae [1]; combined with Posaconazole) was “A” and the ΔE (R. oryzae [1]; combined with Posaconazole) was −26.5%. For the same compound, the “Efficacy of Combined Drugs, E exp” value (R. oryzae [1]; combined with Posaconazole) was 86.5%, the CC50 at 48 h ([2]; A549 alveolar basal epithelial cells, A549, 48 h) was over 50 µM and the CC50 at 48 h ([2]; HaCaT keratinocyte cells) was over 50 µM. For the same compound, the MIC [3] was 2.5 to 5 µM (≈ 0.874 to 1.75 µg/mL), the “Selectivity Index (SI), Preformed Biofilm” value [4] was over 5 and the CC50 at 48 h [5] was over 50 µM. For the same compound, the “Selectivity Index (SI), Planktonic Cell” value (R. oryzae [6]; R. oryzae, from CC50 and MIC50 of planktonic cells) was over 20, the MIC50 (R. oryzae [6]) was 2.5 µM (≈ 0.874 µg/mL) and the MFC (R. oryzae [6]) was over 20 µM. For the same compound, the “chitin content (calcofluor white)” value (R. oryzae cells) was “decreased”, the “neutral lipids (Nile Red)” value (R. oryzae cells) was “decreased” and the MIC (R. oryzae UCP1295 [7]) was 2.5 µM. For the same compound, the “Selectivity Index (SI), Preformed Biofilm” value [8] was over 10, the “Selectivity Index (SI), Planktonic Cell” value (R. microsporus; R. microsporus, from CC50 and MIC50 of planktonic cells) was over 10 and the MIC50 (R. microsporus) was 5 µM (≈ 1.75 µg/mL). The MFC (R. microsporus) was over 20 µM, the inhibition at 5 µM (R. oryzae UCP1295 [9]; [11]) was 59.8% and the inhibition at 5 µM (R. oryzae UCP1295 [9]; [12]) was 60%. The “Viability Inhibition (XTT)” value (R. oryzae UCP1295 [9]) was 59%, the “Selectivity Index (SI), Planktonic Cell” value (R. stolonifer; R. stolonifer, from CC50 and MIC50 of planktonic cells) was over 20 and the MIC50 (R. stolonifer) was 2.5 µM (≈ 0.874 µg/mL). For the same compound, the MFC (R. stolonifer) was over 20 µM.

For `C[C@@H]1[C@H](O)[C@@H](C)/C=C/C=C/C=C/C=C/C=C/C=C/C=C/[C@H](O[C@@H]2O[C@H](C)[C@@H](O)[C@H](N)[C@@H]2O)C[C@@H]2O[C@](O)(C[C@@H](O)C[C@@H](O)[C@H](O)CC[C@@H](O)C[C@@H](O)CC(=O)O[C@H]1C)C[C@H](O)[C@H]2C(=O)O` [Amphotericin B, reference compound], the “Efficacy of Drugs Alone (% of Inhibition), MIC50” value (R. oryzae [1]) is listed as 79.6 % of Inhibition, the “Efficacy of Drugs Alone (% of Inhibition), ½ MIC50” value (R. oryzae [1]) is listed as 21.4 % of Inhibition and the oral bioavailability [10] is listed as “negligible”. The MFC [3] was over 20 µM, the MIC [3] was over 20 µM and the MIC50 (R. oryzae [6]) was over 20 µM. It also gave an MFC (R. oryzae [6]) of over 20 µM, an MIC (R. oryzae UCP1295 [7]) of 40 µM and an MIC50 (R. microsporus) of over 20 µM. The MFC (R. microsporus) was over 20 µM, the MIC50 (R. stolonifer) was over 20 µM and the MFC (R. stolonifer) was over 20 µM.

In the case of `CC[C@@H]([C@H](C)O)n1ncn(-c2ccc(N3CCN(c4ccc(OC[C@@H]5CO[C@@](Cn6cncn6)(c6ccc(F)cc6F)C5)cc4)CC3)cc2)c1=O` [Posaconazole, reference compound], the “Efficacy of Drugs Alone (% of Inhibition), MIC50” value (R. oryzae [1]) is reported as 63.4 % of Inhibition, the “Efficacy of Drugs Alone (% of Inhibition), ½ MIC50” value (R. oryzae [1]) is reported as 6.5 % of Inhibition and the MFC [3] is reported as over 20 µM. For the same compound, the MIC [3] was 0.63 to 2.5 µM (≈ 0.441 to 1.75 µg/mL), the MIC50 (R. oryzae [6]) was 1.25 µM (≈ 0.876 µg/mL) and the MFC (R. oryzae [6]) was over 20 µM. For the same compound, the MIC (R. oryzae UCP1295 [7]) was 1.25 µM, the MIC50 (R. microsporus) was 2.5 µM (≈ 1.75 µg/mL) and the MFC (R. microsporus) was over 20 µM. The inhibition at 5 µM (R. oryzae UCP1295 [9]; [11]) was 56.3%, the inhibition at 5 µM (R. oryzae UCP1295 [9]; [12]) was 56% and the “Viability Inhibition (XTT)” value (R. oryzae UCP1295 [9]) was 73%. For the same compound, the MIC50 (R. stolonifer) was 0.63 µM (≈ 0.441 µg/mL) and the MFC (R. stolonifer) was over 20 µM.
